system: IL-1β production in PMA-differentiated THP-1 cells; assay: IL-1β production in PMA-differentiated THP-1 cells stimulated with gramicidin (hTHP-1 assay); assay type: cell-based, human; details: Average IC50, hTHP-1 assay containing 2% fetal bovine serum; Table 10, class symbols
Experimental: Procedure 1: IL-1β Production in PMA-Differentiated THP-1 Cells Stimulated with Gramicidin
THP-1 cells were purchased from the American Type Culture Collection and sub-cultured according to instructions from the supplier. Cells were cultured in complete RPMI 1640 (containing 10% heat inactivated FBS, penicillin (100 units/ml) and streptomycin (100 μg/ml)), and maintained in log phase prior to experimental setup. Prior to the experiment, compounds were dissolved in dimethyl sulfoxide (DMSO) to generate a 30 mM stock. The compound stock was first pre-diluted in DMSO to 3, 0.34, 0.042 and 0.0083 mM intermediate concentrations and subsequently spotted using Echo550 liquid handler into an empty 384-well assay plate to achieve desired final concentration (e.g. 100, 33, 11, 3.7, 1.2, 0.41, 0.14, 0.046, 0.015, 0.0051, 0.0017 μM). DMSO was backfilled in the plate to achieve a final DMSO assay concentration of 0.37%. The plate was then sealed and stored at room temperature until required.
THP-1 cells were treated with PMA (Phorbol 12-myristate 13-acetate) (20 ng/ml) for 16-18 hours. On the day of the experiment the media was removed and adherent cells were detached with trypsin for 5 minutes. Cells were then harvested, washed with complete RPMI 1640, spun down, and resuspended in RPMI 1640 (containing 2% heat inactivated FBS, penicillin (100 units/ml) and streptomycin (100 μg/ml). The cells were plated in the 384-well assay plate containing the spotted compounds at a density of 50,000 cells/well (final assay volume 50 μl). Cells were incubated with compounds for 1 hour and then stimulated with gramicidin (5 μM) (Enzo) for 2 hours. Plates were then centrifuged at 340 g for 5 min. Cell free supernatant ([…]) was collected using a 96-channel PlateMaster (Gilson) and the production of IL-1β was evaluated by HTRF (cisbio). The plates were incubated for 18 h at 4° C. and read using the preset HTRF program (donor emission at 620 nm, acceptor emission at 668 nm) of the SpectraMax i3x spectrophotometer (Molecular Devices, software SoftMax 6). A vehicle only control and a dose titration of CRID3 (100-0.0017 μM) were run concurrently with each experiment.
Procedure 2: […] Production in PMA-Differentiated THP-1 Cells Stimulated with Gramicidin
THP-1 cells were purchased from the American Type Culture Collection and sub-cultured according to instructions from the supplier. Prior to experiments, cells were cultured in complete RPMI 1640 (containing 10% heat inactivated FBS, penicillin (100 units/ml) and streptomycin (100 μg/ml)), and maintained in log phase prior to experimental setup. Prior to the experiment THP-1 were treated with PMA (Phorbol 12-myristate 13-acetate) (20 ng/ml) for 16-18 hours. Compounds were dissolved in dimethyl sulfoxide (DMSO) to generate a 30 mM stock. On the day of the experiment the media was removed and adherent cells were detached with trypsin for 5 minutes. Cells were then harvested, washed with complete RPMI 1640, spun down, resuspended in RPMI 1640 (containing 2% heat inactivated FBS, penicillin (100 units/ml) and streptomycin (100 μg/ml). The cells were plated in a 384-well plate at a density of 50,000 cells/well (final assay volume 50 μl). Compounds were first dissolved in assay medium to obtain a 5× top concentration of 500 μM. 10 step dilutions (1:3) were then undertaken in assay medium containing 1.67% DMSO. 5× compound solutions were added to the culture medium to achieve desired final concentration (e.g. 100, 33, 11, 3.7, 1.2, 0.41, 0.14, 0.046, 0.015, 0.0051, 0.0017 μM). Final DMSO concentration was at 0.37%. Cells were incubated with compounds for 1 hour and then stimulated with gramicidin (5 μM) (Enzo) for 2 hours. Plates were then centrifuged at 340 g for 5 min. Cell free supernatant (40 μL) was collected using a 96-channel PlateMaster (Gilson) and the production of IL-1β was evaluated by HTRF (cisbio). A vehicle only control and a dose titration of CRID3 (100-0.0017 μM) were run concurrently with each experiment. […]

Row | IC50 [µM] | SMILES
1 | 5 to 30 | CN(C)CCCS(N)(=O)=NC(=O)Nc1c2c(cc3c1CCC3)CCC2 (single isomer, unassigned) [Compound 143, 3-(dimethylamino)-N′-((1,2,3,5,6,7-hexahydro-s-indacen-4-yl)carbamoyl)propane-1-sulfonimidamide]
2 | 1 to 5 | CN(C)CCCS(N)(=O)=NC(=O)Nc1c2c(cc3c1CCC3)CCC2 (single isomer, unassigned) [Compound 142, 3-(dimethylamino)-N′-((1,2,3,5,6,7-hexahydro-s-indacen-4-yl)carbamoyl)propane-1-sulfonimidamide]
3 | 5 to 30 | CN(C)CCCS(N)(=O)=NC(=O)Nc1c2c(cc3c1CCC3)CCC2 (centres unmarked) [Compound 144]

same assay, conditions: Average IC50, hTHP-1 assay containing 2% fetal bovine serum; Table 10, numeric values

Row | IC50 [µM] | SMILES
4 | > 30 | NS(=O)(=NC(=O)Nc1c2c(cc3c1CCC3)CCC2)C1CCCCC1 (centres unmarked) [Compound 150]
5 | > 30 | CC(C)c1cc(F)cc(C(C)C)c1CC(=O)N=S(N)(=O)C1CC1 (centres unmarked) [Compound 309]
6 | > 30 | CC(C)c1cc(F)cc(C(C)C)c1CC(=O)N=S(N)(=O)CCCN(C)C (centres unmarked) [Compound 302]
7 | > 30 | CN(C)CC1(S(N)(=O)=NC(=O)Nc2c3c(cc4c2CCC4)CCC3)CC1 (centres unmarked) [Compound 159]
8 | > 30 | CC(C)c1cc(F)cc(C(C)C)c1CC(=O)N=S(N)(=O)CCCN(C)C (centres unmarked) [Compound 303]
9 | > 30 | CN(C)S(C)(=O)=NC(=O)Nc1c2c(cc3c1CCC3)CCC2 (single isomer, unassigned) [Compound 102, N′-((1,2,3,5,6,7-hexahydro-s-indacen-4-yl)carbamoyl)-N,N-dimethylmethanesulfonimidamide]

same assay, conditions: Homo sapiens, THP-1, Average IC50, hTHP-1 assay containing 2% fetal bovine serum; Table 10, class symbols

Row | IC50 [µM] | SMILES
10 | 1 to 5 | COC(=O)CCS(=O)(=O)NC(=O)Cc1c2c(cc3c1CCC3)CCC2 [Compound 504]
11 | 1 to 5 | CN(C)Cc1ccc(CS(N)(=O)=NC(=O)Nc2c3c(cc4c2CCC4)CCC3)cc1 (single isomer, unassigned) [Compound 106]
12 | 0.008 to 0.04 | CC(C)c1cc(F)cc(C(C)C)c1CC(=O)N=S(N)(=O)C1CC1 (centres unmarked) [Compound 307]
13 | 5 to 30 | CN(C)Cc1cccc(CS(N)(=O)=NC(=O)Nc2c3c(cc4c2CCC4)CCC3)c1 (centres unmarked) [Compound 164, 1-(3-((dimethylamino)methyl)pheny1)-N′-((1,2,3,5,6,7-hexahydro-s-indacen-4-yl)carbamoyl) methane-sulfonimidamide]
14 | 5 to 30 | CN(C)CCCS(N)(=O)=NC(=O)Nc1c2c(cc3c1CCC3)CCC2 (centres unmarked) [Compound 141]
15 | 5 to 30 | CC(C)c1cc(F)cc(C(C)C)c1CC(=O)NS(=O)(=O)Cc1ccc(C(C)(C)O)cc1 [Compound 506]
16 | 0.2 to 1 | CC(C)(O)c1ccc(CS(N)(=O)=NC(=O)Nc2c3c(cc4c2CCC4)CCC3)cc1 (centres unmarked) [Compound 165, N′-((1,2,3,5,6,7-hexahydro-s-indacen-4-yl)carbamoyl)-1-(4-(2-hydroxypropan-2-yl)phenyl)methane-sulfonimidamide]
17 | 5 to 30 | CC(CCc1ccccc1)S(N)(=O)=NC(=O)Nc1c2c(cc3c1CCC3)CCC2 (centres unmarked) [Compound 109]
18 | 5 to 30 | CC(C)c1cccc(C(C)C)c1NC(=O)NS(=O)(=O)CC(O)c1ccsc1 (centres unmarked) [Compound 402]
19 | 5 to 30 | NS(=O)(=NC(=O)Nc1c2c(cc3c1CCC3)CCC2)C1CCCC1 (centres unmarked) [Compound 153]
20 | 1 to 5 | CC(CN(C)C)CS(N)(=O)=NC(=O)Nc1c2c(cc3c1CCC3)CCC2 (single isomer, unassigned) [Compound 122, 3-(dimethylamino)-N′-((1,2,3,5,6,7-hexahydro-s-indacen-4-yl)carbamoyl)-2-methylpropane-1-sulfonimidamide]
21 | 5 to 30 | CC(C)c1cc(Cl)cc(C(C)C)c1NC(=O)NS(=O)(=O)CC(=O)c1ccsc1 [Compound 403]

same assay, conditions: Homo sapiens, THP-1, Average IC50, hTHP-1 assay containing 2% fetal bovine serum; Table 10, numeric values

Row | IC50 [µM] | SMILES
22 | > 30 | NS(=O)(=NC(=O)Nc1c2c(cc3c1CCC3)CCC2)C1CCC1 (single isomer, unassigned) [Compound 145]
23 | > 30 | NS(=O)(=NC(=O)Nc1c2c(cc3c1CCC3)CCC2)C1Cc2ccccc2C1 (single isomer, unassigned) [Compound 130]
24 | 31.5 | CC(C)c1cc(F)cc(C(C)C)c1NC(=O)NS(=O)(=O)C1CC1 [Compound 401]
25 | > 30 | CN(C)S(C)(=O)=NC(=O)Nc1c2c(cc3c1CCC3)CCC2 (single isomer, unassigned) [Compound 101, N′-((1,2,3,5,6,7-hexahydro-s-indacen-4-yl)carbamoyl)-N,N-dimethylmethanesulfonimidamide]
26 | > 30 | CC(C)c1cc(F)cc(C(C)C)c1CC(=O)N=S(N)(=O)C1CC1 (centres unmarked) [Compound 308]
27 | > 30 | NS(=O)(=NC(=O)Nc1c2c(cc3c1CCC3)CCC2)C1CC1 (centres unmarked) [Compound 156, N′-((1,2,3,5,6,7-hexahydro-s-indacen-4-yl)carbamoyl) cyclopropane-sulfonimidamide]
28 | > 100 | CC(C)c1cc(F)cc(C(C)C)c1CC(=O)NS(=O)(=O)CCCC(=O)O [Compound 512]
29 | > 100 | CC(C)c1cc(F)cc(C(C)C)c1CC(=O)NS(=O)(=O)Cc1cccc(C(C)(C)O)c1 [Compound 502]
30 | > 100 | CC(C)c1cc(F)cc(C(C)C)c1CC(=O)NS(=O)(=O)Cc1cccnc1 [Compound 522]
31 | > 30 | NS(=O)(=NC(=O)Nc1c2c(cc3c1CCC3)CCC2)C1CCC1 (centres unmarked) [Compound 149, N′-((1,2,3,5,6,7-hexahydro-s-indacen-4-yl)carbamoyl) cyclobutane-sulfonimidamide]
32 | > 30 | CS(=O)(=NC(=O)Nc1c2c(cc3c1CCC3)CCC2)NC(=O)c1ccccc1 (centres unmarked) [Compound 108]
33 | > 30 | CC(C)c1cc(F)cc(C(C)C)c1CC(=O)NS(=O)(=O)Cc1cc(-c2ccccc2)no1 [Compound 519]
34 | > 30 | NS(=O)(=NC(=O)Nc1c2c(cc3c1CCC3)CCC2)C1CCCC1 (centres unmarked) [Compound 151]
35 | > 100 | CC(C)c1cc(F)cc(C(C)C)c1CC(=O)NS(=O)(=O)Cc1ccccc1 [Compound 511]
36 | > 100 | CC(C)c1cc(F)cc(C(C)C)c1CC(=O)NS(=O)(=O)Cc1ccc(CN)cc1 [Compound 507]
37 | > 30 | CN(C)CCCC(=O)NS(C)(=O)=NC(=O)Nc1c2c(cc3c1CCC3)CCC2 (single isomer, unassigned) [Compound 118, 4-(dimethylamino)-N—(N-((1,2,3,5,6,7-hexahydro-s-indacen-4-yl)carbamoyl)-S-methylsulfonimidoyl)butanamide]
38 | > 100 | COC(=O)c1cccc(CS(=O)(=O)NC(=O)Cc2c(C(C)C)cc(F)cc2C(C)C)c1 [Compound 514]
39 | > 30 | CC(C)c1cc(F)cc(C(C)C)c1CC(=O)N=S(N)(=O)CCCN(C)C (centres unmarked) [Compound 301]
40 | > 100 | CC(C)c1cc(F)cc(C(C)C)c1CC(=O)NS(=O)(=O)CCC(=O)O [Compound 515]
41 | > 30 | CC1(S(N)(=O)=NC(=O)Nc2c3c(cc4c2CCC4)CCC3)CC1 (centres unmarked) [Compound 161]
42 | > 30 | CN1CCC(CS(N)(=O)=NC(=O)Nc2c3c(cc4c2CCC4)CCC3)C1 (single isomer, unassigned) [Compound 113]
43 | > 100 | CC(C)c1cc(F)cc(C(C)C)c1CC(=O)NS(=O)(=O)Cc1ccccc1C(=O)O [Compound 517]
44 | > 30 | CN(C)S(C)(=O)=NC(=O)Nc1c2c(cc3c1CCC3)CCC2 (centres unmarked) [Compound 107]

Source: patent publication US20220227707A1, “COMPOUNDS AND COMPOSITIONS FOR TREATING CONDITIONS ASSOCIATED WITH NLRP ACTIVITY” (Novartis AG, priority 2019, published 2022)
